What all share (assay): NCI anticancer screen, dose series, 48 h
For assay [1], the system named is SR.
The subject of assay [2] is SNB-75.
For assay [3], the system named is CCRF-CEM.
Assay [4] has as its system UACC-257.
The test system of assay [5] is HOP-92.
The subject of assay [6] is HCT-116.
Assay [7] concerns OVCAR-4.
Assay [8] deals with OVCAR-3.
Assay [9] relates to KM12.
Assay [10] deals with NCI-H522.
The subject of assay [11] is SW-620.
Assay [12] relates to RXF 393.
In assay [13] the test system is SK-MEL-2.
Assay [14] relates to IGROV-1.
For assay [15], the system named is HL-60.
The test system of assay [16] is NCI-H226.
Assay [17] has as its system SF-539.
For assay [18], the system named is HCC 2998.
Assay [19] relates to SNB-19.
The subject of assay [20] is NCI/ADR-RES.

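Five concentrations, 48 hours, 96-well plates. Here, GI50 denotes the concentration required for 50% inhibition of growth.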 The source made the active and inactive calls. Rule as the data show it: active = GI50 up to about 1.1 µM and inactive = higher.

On to `OC1COC(n2c3ccc(Br)cc3c3ccc4c5ccccc5[nH]c4c32)C(O)C1O` (centres undefined), for which the GI50 in [1] is 3.67 µM (inactive); in assay [2], 3.24 µM (inactive); in [3], 4.72 µM (inactive); in assay [4], 5.21 µM (inactive); in [5], 2.54 µM (inactive); in assay [6], 3.55 µM (inactive). The GI50 was 13.5 µM (inactive) in assay [7]; 3.37 µM (inactive) in assay [8]; 1.56 µM (inactive) in assay [9]; 2.82 µM (inactive) in assay [10]; 0.644 µM (active) in assay [11]; 1.76 µM (inactive) in assay [12]. Further, the GI50 in assay [13] is 0.658 µM (active); in assay [14], 1.21 µM (inactive); in assay [15] it was 3.48 µM (inactive); in assay [16] it was 6.76 µM (inactive); in assay [17] it was 5.24 µM (inactive); in [18] it was 2.67 µM (inactive). Besides, the figures for the GI50 in assay [19] and in [20] were 10.7 µM (inactive) and 4.07 µM (inactive), respectively.

On to `CCCCOC(=O)C(=O)C(CCC(=O)c1ccc(C)cc1)C(=O)C=C(C)C` (centres undefined), for which the GI50 in assay [1], in [2], in [3], in [4], in assay [5] and in assay [6] was > 100 µM (inactive) throughout. The GI50 in assay [7], in assay [8], in [9], in [10], in assay [11] and in assay [12] was > 100 µM (inactive) each time. Also, the GI50 in [13], in assay [14], in assay [15], in [16], in assay [17] and in assay [18] was > 100 µM (inactive) throughout. Moreover, the GI50 in assay [19] is 52.7 µM (inactive); in [20], > 100 µM (inactive).

In the case of `COc1ccc2c(c1)N=C1CSC(c3ccccc3Cl)N1C2` (centres undefined), the GI50 in assay [1] was 0.929 µM (active); in assay [2] it was 9.91 µM (inactive); in assay [4], 16.3 µM (inactive); in assay [5], 18.3 µM (inactive); in [6], 3.92 µM (inactive); in [7], 14.1 µM (inactive). The GI50 in assay [9] was 4.6 µM (inactive); in [10] it was 15.1 µM (inactive); in assay [11], 14.8 µM (inactive); in assay [12], 11.3 µM (inactive); in assay [13], 15.8 µM (inactive); in [15], 0.411 µM (active). Also, the GI50 is 24 µM (inactive) in assay [16]; 5.48 µM (inactive) in [17]; 5.07 µM (inactive) in assay [18]; 19 µM (inactive) in [19]; 21.6 µM (inactive) in [20].

Consider `Cn1c2ccccc2n2c3ncccc3c(=O)c(C#N)c12`, for which the GI50 in assay [1] was 3.73 µM (inactive); in assay [2], 12.2 µM (inactive); in [3], 4.07 µM (inactive); in assay [4] it was 26.5 µM (inactive); in assay [5], 19.5 µM (inactive); in assay [6], 4.81 µM (inactive). Also, the GI50 in [7] is 30.7 µM (inactive); in [8], 11 µM (inactive); in assay [9], 14.6 µM (inactive); in assay [10] it was 9.02 µM (inactive); in assay [11], 7.85 µM (inactive); in [12], 16.9 µM (inactive). For the same molecule, the GI50 was 35 µM (inactive) in assay [13]; 5.32 µM (inactive) in [14]; 2.09 µM (inactive) in assay [15]; 1.79 µM (inactive) in [16]; 21.5 µM (inactive) in assay [18]; 8.28 µM (inactive) in assay [19]. Also, in assay [20], the GI50 was 16.3 µM (inactive).

In the case of `OCc1ccc2c(c1)CC1(Cc3ccccc3C1)C2`, the GI50 in [1] is 22.3 µM (inactive); in assay [2] it was 13.5 µM (inactive); in assay [3] it was 4.39 µM (inactive); in assay [4], 15.1 µM (inactive); in assay [5], 17.1 µM (inactive); in [6] it was 14.3 µM (inactive). Further, the GI50 was 34 µM (inactive) in assay [7]; 23 µM (inactive) in assay [8]; 14.4 µM (inactive) in assay [9]; 22.5 µM (inactive) in [10]; 18.4 µM (inactive) in assay [11]; 15.7 µM (inactive) in [12]. The GI50 is > 10 µM (inactive) in [14]; 10.7 µM (inactive) in assay [15]; 28.1 µM (inactive) in assay [16]; 18.3 µM (inactive) in assay [17]; 27.7 µM (inactive) in assay [18]; 16.8 µM (inactive) in assay [20].

`Clc1nc(-c2ccccc2)nc(Cl)c1Cl`: the GI50 in assay [1] is 2.69 µM (inactive); in assay [2], 15.7 µM (inactive); in assay [3], 2.54 µM (inactive); in assay [4], 14.6 µM (inactive); in [5], 13.9 µM (inactive); in assay [6] it was 5.6 µM (inactive). The GI50 is 16 µM (inactive) in assay [7]; 8.38 µM (inactive) in assay [8]; 11.6 µM (inactive) in assay [9]; 3.21 µM (inactive) in [10]; 4.98 µM (inactive) in assay [11]; 7.85 µM (inactive) in assay [12]. Besides, the GI50 in assay [14] is 8.69 µM (inactive); in assay [15] it was 13.2 µM (inactive); in assay [16], 12.1 µM (inactive); in [17], 18.4 µM (inactive); in assay [18], 7.71 µM (inactive); in assay [19] it was 17.1 µM (inactive). Moreover, the GI50 in [20] is 22.5 µM (inactive).

`COc1cc(C=C(c2ccc(N(C)C)cc2)c2ccc(N(C)C)cc2)c2ccccc2c1OC`: the GI50 in assay [1] is 22.3 µM (inactive); in assay [2], 36.3 µM (inactive); in assay [3], 18.6 µM (inactive); in assay [4], 76.7 µM (inactive); in assay [5], > 100 µM (inactive); in assay [6], 35.1 µM (inactive). In addition, the GI50 in assay [7] is 70.3 µM (inactive); in assay [8] it was 27.2 µM (inactive); in assay [9] it was 38.4 µM (inactive); in [10], 25.4 µM (inactive); in assay [12], > 100 µM (inactive); in assay [13] it was 33.9 µM (inactive). Besides, the GI50 in assay [14] was > 100 µM (inactive); in assay [15], 9.29 µM (inactive); in [16] it was 41 µM (inactive); in assay [18], 87.7 µM (inactive); in assay [19], > 100 µM (inactive); in [20] it was 23.4 µM (inactive).

In the case of `COc1ccc(OC)c(N2C(=O)/C(=C\c3ccccc3)SC2c2cc(OC)c(OC)c(OC)c2)c1` (centres undefined), the GI50 is 33.7 µM (inactive) in assay [1]; 26.2 µM (inactive) in assay [2]; 49.5 µM (inactive) in [3]; > 100 µM (inactive) in [4]; 17.5 µM (inactive) in assay [5]; > 100 µM (inactive) in [6]. The GI50 in [7] was > 91.8 µM (inactive); in assay [8] it was 62.4 µM (inactive); in [9], 61.5 µM (inactive); in assay [10], 30.9 µM (inactive); in assay [11], 46.6 µM (inactive); in assay [12] it was 11.6 µM (inactive). Further, the GI50 in assay [13] is > 100 µM (inactive); in [14], 29.8 µM (inactive); in [15] it was 58.9 µM (inactive); in [16] it was > 100 µM (inactive); in assay [18], > 100 µM (inactive); in [19], > 100 µM (inactive). For the same molecule, the GI50 in [20] is > 71.3 µM (inactive).

Take `O=C(/C=C1\C[C@H]2C=Nc3ccccc3C(=O)N2C1)NCCCNC(=O)/C=C1\C[C@H]2C=Nc3ccccc3C(=O)N2C1`: the GI50 in [1] was 2.11 µM (inactive); in assay [2], 16.2 µM (inactive); in assay [4], 16.5 µM (inactive); in assay [5], 20 µM (inactive); in assay [6], 16 µM (inactive); in assay [7], 18.2 µM (inactive). Moreover, the GI50 in [8] is 12 µM (inactive); in assay [9], 16 µM (inactive); in [10], 1.96 µM (inactive); in assay [11], 5.51 µM (inactive); in [12], 13.6 µM (inactive); in assay [13], 19.3 µM (inactive). In addition, the GI50 in [14] is 17.3 µM (inactive); in assay [15], 8.73 µM (inactive); in assay [16], 20.7 µM (inactive); in [17] it was 18.3 µM (inactive); in assay [18] it was 20.2 µM (inactive); in [19] it was 16.4 µM (inactive). For the same molecule, the GI50 in [20] was 23.3 µM (inactive).

With `COc1cc2c(cc1OC)C(OC)N(C)c1c-2ccc2cc3c(cc12)OCO3` (centres undefined), the GI50 was 0.506 µM (active) in [1]; 0.708 µM (active) in [2]; 0.653 µM (active) in [3]; 12.1 µM (inactive) in [4]; 2.19 µM (inactive) in assay [5]; 1.66 µM (inactive) in assay [6]. Besides, the GI50 in assay [7] is 4.93 µM (inactive); in assay [8], 1.5 µM (inactive); in assay [9] it was 0.839 µM (active); in [10] it was 0.152 µM (active); in assay [11], 0.571 µM (active); in assay [12] it was 1.91 µM (inactive). Besides, the GI50 is 1.98 µM (inactive) in assay [13]; 0.805 µM (active) in assay [14]; 2.22 µM (inactive) in assay [15]; 1.11 µM (active) in [16]; 1.75 µM (inactive) in [17]; 1.65 µM (inactive) in assay [18]. Further, the figures for the GI50 in [19] and in assay [20] were 0.665 µM (active) and 26.8 µM (inactive), respectively.
